PMC9769694, “Discovery of Two Inhibitors of the Type IV Pilus Assembly ATPase PilB as Potential Antivirulence Compounds” (Microbiology Spectrum, 2022)

Experiments:
Details in all cases: data not shown
M. xanthus S motility = assay: T4P-mediated social (S) motility, colony expansion on soft agar; type: cell-based, Myxococcus xanthus
Description: Benserazide and levodopa were examined to determine whether they could impact the T4P assembly function of PilB in vivo using M. xanthus as the model bacterium ([28]). […] Three M. xanthus strains were used for these experiments. Strain DK10416 lacks S motility because it is a pilB deletion (ΔpilB) mutant ([40]). The other two strains both assemble T4P and are proficient in S motility ([30]). Strain YZ1674 produces the wild-type (WT) M. xanthus PilB (MxPilB). YZ2232 expresses MC3PilB, a PilB chimera with the N terminus of MxPilB fused to the C-terminal ATPase domain of CtPilB ([30]). The PilB ATPase domains of MxPilB and MC3PilB are highly similar, with 66% shared identity and 77% similarity (Fig. S1).
FIG 5 Benserazide and levodopa inhibit T4P-mediated social (S) motility in Myxococcus xanthus. Expansion rates (cm/day) of the MxPilB (YZ1674) and the MC3PilB (YZ2232) strains on soft agar plates by S motility in the presence of (A and C) benserazide and (B and D) levodopa after 5 days of incubation. Results from three independent experiments are shown, each performed in quintuplicates with data points represented by dots of the same color. Horizontal black lines represent overall averages. Expansion rates were normalized by subtracting that of the ΔpilB strain, which has no S motility (also see Fig. S4). Asterisks (*) indicate that the values at the indicated concentrations are statistically different (P < 0.05) from those of the no-inhibitor control.
M. xanthus was grown and maintained at 32°C in Casitone-yeast extract (CYE) medium ([49]). Motility assays were conducted with strains DK10416 (ΔpilB) ([40]), YZ1674 (ΔpilB att::MxpilB) ([50]), and YZ2232 (ΔpilB att::MC3pilB) ([30], [51]) as previously described ([28]). One modification was that 10% India ink was included in the cell suspension to mark the initial spot on agar plates. All experiments were conducted in quintuplicates and the diameter of the initial spot, as marked by India ink, was subtracted for data analysis.

CtPilB = CtPilB (Chloracidobacterium thermophilum, UniProt G2LDI3); assay: Malachite green ATPase assay, dose response (benchtop); type: biochemical
CtPilB, sequence (G2LDI3 entry or part of it): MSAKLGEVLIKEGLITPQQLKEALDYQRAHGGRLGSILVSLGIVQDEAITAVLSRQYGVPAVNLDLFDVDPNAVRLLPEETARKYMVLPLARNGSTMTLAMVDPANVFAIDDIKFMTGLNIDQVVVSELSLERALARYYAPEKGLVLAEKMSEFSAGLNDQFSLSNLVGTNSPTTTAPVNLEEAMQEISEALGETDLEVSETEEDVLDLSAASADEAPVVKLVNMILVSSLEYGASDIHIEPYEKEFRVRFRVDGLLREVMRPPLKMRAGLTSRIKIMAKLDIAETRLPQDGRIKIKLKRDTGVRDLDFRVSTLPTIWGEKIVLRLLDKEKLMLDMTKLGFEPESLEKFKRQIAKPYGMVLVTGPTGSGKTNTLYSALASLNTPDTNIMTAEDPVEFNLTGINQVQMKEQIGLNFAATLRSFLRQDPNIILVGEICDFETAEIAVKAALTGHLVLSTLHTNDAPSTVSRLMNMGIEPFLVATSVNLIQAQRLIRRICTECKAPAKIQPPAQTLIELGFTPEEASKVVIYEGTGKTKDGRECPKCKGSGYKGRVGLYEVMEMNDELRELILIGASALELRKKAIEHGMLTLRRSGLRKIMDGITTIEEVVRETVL
Protocol: The full-length CtPilB and the CtPilBΔN variant (with the first 139 residues at the N terminus truncated) were purified as preciously described ([29]). The HTS was conducted using 384-well microplates (Greiner, cat no. 781101). Each microwell for the screen contained a 15-μL reaction mixture consisting of 75 nM CtPilB, 0.5 mM ATP, 20 μM of a library compound, and 2% DMSO in activity buffer (50 mM N-tris(hydroxymethyl)methyl-3-aminopropanesulfonic acid [TAPS], 50 mM Tris, 75 mM KCl, 50 mM sodium acetate, 5 mM MgCl2, 50 mM ZnCl2 [pH 8.7]) ([29]). Reaction mixtures were incubated at 55°C for 10 min and transferred to ice for 5 min to stop the enzymatic reaction. MG reagent (50 μL) was added to each well for color development. After a 15-minute incubation, 5 μL of 34% (wt/vol) sodium-citrate (MP Chemicals) was added and the plate was mixed by shaking ([28], [29]). Absorbance at 620 nm (A620) was measured using a SpectraMax M5 microplate reader at room temperature. The HTS was performed at the Virginia Tech Center for Drug Discovery (VTCDD) Screening Laboratory.
The effects of inhibitors on the ATPase activity of CtPilB and CtPilBΔN and the binding of MANT-ATP were determined as described previously ([28], [29]). Stock solutions were prepared by dissolving benserazide hydrochloride (Alfa Aesar) or levodopa (Spectrum Chemical Mfg. Corp.) in dimethyl sulfoxide (DMSO; Fisher Biotech). Next, 10× working stocks for given concentrations of an inhibitor were freshly prepared before their use in an experiment. GraphPad Prism v7.04 was used for curve fitting and Student’s t test was used for statistical analysis.

[1] = test system: A. nosocomialis twitching motility; assay: Twitching motility, crystal violet stained twitching area; type: cell-based, Acinetobacter nosocomialis
Description: The inhibitors may thus interact with conserved features of the PilB ATPase family. A. nosocomialis PilB ([19]), whose N terminus is not similar to the MshEN domain (data not shown), shares ~53% identity and ~74% homology with MxPilB and MC3PilB in the ATPase domain (Fig. S1). We analyzed whether benserazide and levodopa could impact the T4P-powered twitching motility ([19], [44]) of A. nosocomialis (Fig. 7), an opportunistic pathogen in the Acinetobacter calcoaceticus-Acinetobacter baumannii (ACB) complex ([45]). As shown in Fig. 7A and B and Fig. S7, benserazide and levodopa impede the twitching motility of WT A. nosocomialis in a concentration-dependent manner.
FIG 7 Benserazide and levodopa inhibit Acinetobacter nosocomialis twitching motility and biofilm formation. (A and B) Twitching motility is correlated with the twitching area (cm^2) of the A. nosocomialis wild-type (WT) strain in the presence of (A) benserazide or (B) levodopa, with the control (no inhibitor) normalized to 1. Data are from 3 independent experiments, each performed in triplicates and represented by dots of the same color. (C and D) Biofilms formed by A. nosocomialis with (C) benserazide or (D) levodopa were analyzed by a microplate assay with crystal violet (CV) staining. Results from three independent experiments, each performed in quadruplicates and represented by dots of the same color, are shown. Horizontal lines indicate overall averages, and asterisks (*) signify that values at the indicated concentration are statistically different from those of the control (P < 0.05).
The A. nosocomialis wild-type M2 strain and an isogenic pilA deletion (ΔpilA) mutant ([19], [46]) were used in this study. They were grown and maintained using MacConkey medium at 37°C. The twitching motility of the M2 strain of A. nosocomialis was analyzed with 1% crystal violet (CV) for staining, and twitching areas were used as measures of motility as previously described ([46]). These motility assays were conducted in triplicates and the stained area of the ΔpilA mutant was subtracted from that of the WT for data analysis. A. nosocomialis biofilm formation was analyzed using microplates and CV staining as previously described ([53], [54]). The biofilm assays were conducted in quadruplicate in MacConkey medium with tissue culture-treated microtiter plates (Falcon). CV absorbance (Acv) was measured at 590 nm using Infinite M200 PRO in clear polystyrene 96-well microplates (ExtraGene). Absorbance for each well was read 16 times using Multiple Reads with the average as the final Acv value. Readings from control wells without bacteria were subtracted for normalization. Statistical differences were determined using a Student’s t test.

N[C@@H](Cc1ccccc1)C(=O)O [phenylalanine]
no inhibitory effect: inhibitory effect on motility of M. xanthus in vivo (M. xanthus S motility) | inhibitory effect on CtPilB in vitro (CtPilB) | inhibitory effect on motility of A. nosocomialis in vivo [1]

N[C@@H](Cc1ccc(O)cc1)C(=O)O [tyrosine, 4-monohydroxyphenylalanine]
no inhibitory effect: inhibitory effect on motility of M. xanthus in vivo (M. xanthus S motility) | inhibitory effect on CtPilB in vitro (CtPilB) | inhibitory effect on motility of A. nosocomialis in vivo [1]
